Values joined by “and” are separate entries in the source; they are usually repeats but may differ in a detail not shown here. Identical values can stand only once. “Also recorded” adds a separate entry of the source.
Legend:
[1] = system: CT-26 colon carcinoma tumors; test: CT-26 syngeneic mouse model of colon cancer, i.p. dosing (Examples 1-4); assay type: in vivo; conditions: for tumor growth inhibition over time: TLR4 agonist 4, 20, 100 ug per mouse i.p. biweekly, vs vehicle (2% glycerol); for survivability: TLR4 agonist i.p. biweekly, vs vehicle
[2] = system: CT-26 colon carcinoma tumors; test: In vivo anti-tumor efficacy in murine CT-26 colon carcinoma syngeneic solid tumor model (Example 5, Studies 1-4, 6, 7): tumor growth and survival; parameters: species or system mouse; conditions: for tumor growth inhibition vs control Group 5: 12 days
Description: The in vivo anti-tumor efficacy of the TLR4 agonist (CRX601) was assessed in the murine CT-26 colon carcinoma syngeneic solid tumor model as a monotherapy and in combination with a rate anti-mouse OX40 antibody clone OX86. Seven to eight week old female Balb/c mice (BALB/cAnNCrl, Charles River) were used in these studies. Murine CT-26 colon carcinoma cells (ATCC catalog number CRL-2638 lot#59227052) were cultured in RPMI growth medium supplemented with 10% fetal bovine serum (FBS) in a humidified 37° C. incubator with 5% CO2. CT-26 cells cultured in logarithmic growth were harvested from tissue culture flasks and centrifuged for 5 minutes at 450×g at 4° C. […] to pellet cells. The supernatant was discarded, and cells were washed in ice cold phosphate buffered saline (PBS) without calcium and magnesium and centrifuged again for 5 minutes at 450×g at 4° C. […] to pellet cells. The cells were resuspended in sterile RPMI media without FBS and adjusted to a cell concentration of 500,000 cells/ml. 100 μl of the cell stock was implanted via subcutaneous injection into the right flank of each Balb/c mouse. After ten or eleven days when the average tumor size reached approximately 100 mm^3, mice were randomized into study cohorts according to tumor size and the first treatment dose was given. The TLR4 agonist (CRX601) or vehicle was dosed via a systemic intravenous or direct intratumoral injection as indicated. The CRX-601 vehicle used for intravenous and intratumoral dosing was […] where indicated. For CRX-601 liposomal intratumoral dosing, a DOPC/CHOL liposome prepared by GSK Lot #1783-157-B was used. The rat anti-mouse OX40 receptor antibody (clone OX86) (expressed and purified in-house from the rat hybridoma Grits ID 50776, BP232 2013) or Rat IgG1 isotype control antibody (BioXCell catalog # BE0088) was dosed via an intraperitoneal injection given twice per week for a total of six doses. Caliper measurements were taken three times per week to assess tumor growth, and mice with tumors <2,000 mm^3 were maintained on study from 30 up to approximately 115 days. Mice with tumors >2,000 mm^3 for 2 consecutive measurements or mice with tumors which formed open ulcers were removed from the study. Tumor volume was calculated using the formula (0.52)×(Length)×(Width^2). In studies 6 and 7, tumor-free mice were re-challenged with CT-26 tumor cells as described above, on the opposite flank from the original inoculation site and tumor growth was monitored, as described above. All studies were conducted in accordance with the GSK Policy on the Care, Welfare and Treatment of Laboratory Animals and were reviewed by the Institutional Animal Care and Use Committee at GSK.
For studies 1-4, to determine significance of tumor growth inhibition, tumor volumes at 11 (study 1), 15 (studies 2 and 3), or 19 (study 4) days after first dose were compared between the different treatment groups. Prior to the analysis, tumor volumes were natural log transformed due to the inequality of variance in the different treatment groups. ANOVA followed by pair-wise comparison was then carried out on the log transformed data. SAS 9.3 and R 3.0.2 analysis software was used. Kaplan-Meier (KM) method was carried out to estimate the survival probability of different treatment groups at a given time. The event for survival analysis was tumor volume of 2000 mm^3 or tumor ulceration, whichever came first. The exact time to cut-off volume was estimated by fitting a linear line between log tumor volume and day of two observations, the first observation that exceed the cut-off volume and the one observation that immediately preceded the cut-off volume. The median time to endpoint and its corresponding 95% confidence interval was calculated. Whether or not KM survival curves were statistically different between any two groups was then tested by log-rank test. […]

CT-26 tumor cells = test: CT-26 tumor re-challenge of tumor-free mice (Studies 6 and 7); assay type: in vivo, mouse; conditions: vs naive control mice
Description: The in vivo anti-tumor efficacy of the TLR4 agonist (CRX601) was assessed in the murine CT-26 colon carcinoma syngeneic solid tumor model as a monotherapy and in combination with a rate anti-mouse OX40 antibody clone OX86. Seven to eight week old female Balb/c mice (BALB/cAnNCrl, Charles River) were used in these studies. Murine CT-26 colon carcinoma cells (ATCC catalog number CRL-2638 lot#59227052) were cultured in RPMI growth medium supplemented with 10% fetal bovine serum (FBS) in a humidified 37° C. incubator with 5% CO2. CT-26 cells cultured in logarithmic growth were harvested from tissue culture flasks and centrifuged for 5 minutes at 450×g at 4° C. for ten minutes to pellet cells. The supernatant was discarded, and cells were washed in ice cold phosphate buffered saline (PBS) without calcium and magnesium and centrifuged again for 5 minutes at 450×g at 4° C. for ten minutes to pellet cells. The cells were resuspended in sterile RPMI media without FBS and adjusted to a cell concentration of 500,000 cells/ml. […] Tumor volume was calculated using the formula (0.52)×(Length)×(Width^2). In studies 6 and 7, tumor-free mice were re-challenged with CT-26 tumor cells as described above, on the opposite flank from the original inoculation site and tumor growth was monitored, as described above. […]

TNF alpha and IL-12p70 = test: Multiplex cytokine analysis of plasma from CT-26 mice (Study 5); assay type: in vivo, mouse; conditions: CRX-601 10 ug, OX-86, or both
Description: Tumors, blood and tissues were harvested from CT-26 mice on day 0, day 1 and day 8 after first CRX-601 dosing. Mouse white blood cells and dissociated tumor single cells were stained freshly with surface or intracellular staining antibodies for multicolor flow cytometry analysis for immunephenotyping. Multiplex cytokine analysis was performed using mouse plasma samples from the same study.
Results are the mean of five animals per cohort.

[3] = system: OX40 expression on human PBMCs; test: In vitro human PBMC assay, OX40 expression by flow cytometry; assay type: cell-based; conditions: 24 hours, 0.01 μg/ml-1,000 μg/ml
Description: In vitro human peripheral blood mononuclear cell (PBMC) assay was performed to assess the effect of CRX601 on OX40 expression. Freshly isolated human PBMCs were checked for viability and were cultured in AIM-V serum free media at a density of two million cells per well in a 24-well non tissue culture treated plate. PBMCs were stimulated with a dose concentration (0.01 μg/ml-1,000 μg/ml, including a vehicle blank) of CRX-601 for 24 hours. By the end of incubation, cells were collected for flow cytometry assessment of OX40 expression.

[4] = Study 1, 50 ug intratumoral, day 42
[5] = Study 2, 100 ug intravenous, day 32

Compound: CCCCCCCCCCC[C@H](CC(=O)N[C@H]1[C@H](OC[C@H](NC(=O)C[C@@H](CCCCCCCCCCC)OC(=O)CCCCCCCCC)C(=O)O)O[C@H](CO)[C@@H](OP(=O)(O)O)[C@@H]1OC(=O)C[C@@H](CCCCCCCCCCC)OC(=O)CCCCCCCCC)OC(=O)CCCCCCCCC [CRX-527]
- tumor growth inhibition over time [1]: inhibited tumor growth in a dose-dependent manner; also recorded: dose-dependent anti-tumor activity
- survivability [1]: Dose dependence was also seen in the survivability

Compound: CCCCCCCCCCC[C@H](CC(=O)N[C@H]1[C@H](OC[C@H](NC(=O)C[C@@H](CCCCCCCCCCC)OCCCCCCCCCC)C(=O)O)O[C@H](CO)[C@@H](OP(=O)(O)O)[C@@H]1OC(=O)C[C@@H](CCCCCCCCCCC)OCCCCCCCCCC)OCCCCCCCCCC [CRX-601]
- tumor growth inhibition over time [1]: inhibited tumor growth in a dose-dependent manner; also recorded: dose-dependent anti-tumor activity
- survivability [1]: Dose dependence was also seen in the survivability
- tumor-free mice among mice remaining on study ([2]; Study 1, 10 ug intratumoral, day 42): single mouse remaining in the 10 μg group was tumor-free
- tumor growth inhibition vs vehicle ([2]; Study 1, 10 ug/mouse intratumoral twice per week x6, 11 days after initial dose): statistically significant
- tumor volume of remaining mouse not tumor-free [2, 4]: 854.19 mm^3
- tumor-free mice among mice remaining on study [2, 4]: Three of the four
- increase in survival vs vehicle ([2]; Study 1, 50 ug intratumoral, day 42 post tumor cell inoculation): statistically significant
- tumor growth inhibition vs vehicle ([2]; Study 1, 50 ug/mouse intratumoral single dose, 11 days after initial dose): statistically significant
- anti-tumor activity (tumor growth inhibition over time) ([2]; Study 1, intratumoral 0.1, 1, 10 ug twice per week x6 or 50 ug single dose): dose-dependent anti-tumor activity
- tumor volume of single remaining mouse ([2]; Study 2, 10 ug intravenous, day 32): 188.0 mm^3
- tumor growth inhibition vs vehicle ([2]; Study 2, 10 ug/mouse intravenous twice per week x6, 15 days after initial dose): statistically significant
- tumor volumes of remaining mice not tumor-free [2, 5]: 1500.49 mm^3 and 962.61 mm^3
- tumor-free mice among mice remaining on study [2, 5]: One of the three
- increase in survival vs vehicle ([2]; Study 2, 100 ug intravenous, day 32 post tumor cell inoculation): statistically significant increase
- tumor growth inhibition vs vehicle ([2]; Study 2, 100 ug/mouse intravenous single dose, 15 days after initial dose): statistically significant
- anti-tumor activity (tumor growth inhibition over time) ([2]; Study 2, intravenous 1, 10 ug twice per week x6 or 100 ug single dose): dose-dependent anti-tumor activity
- tumor growth inhibition vs vehicle ([2]; Study 3, CRX-601 10 ug/mouse iv once per week x3, alone, 15 days after first dose): did not show statistically significant tumor growth inhibition
- tumor growth inhibition vs vehicle ([2]; Study 3, CRX-601 25 ug/mouse iv once per week x3, alone, 15 days after first dose): did not show statistically significant tumor growth inhibition
- anti-tumor activity (tumor volume over time) ([2]; Study 4, OX-86 25 ug/mouse twice per week x6, CRX-601 25 ug/mouse iv 1x/week x3, alone or combined): Anti-tumor activity was observed
- mice remaining tumor-free at study end ([2]; Study 4, day 111, 25 ug/mouse each agent, monotherapy arms with Rat IgG1 or vehicle, groups of 10): two
- tumor growth inhibition vs control Group 5 ([2]; Study 6, CRX-601 25 ug intratumoral 1x/week x3 + Rat IgG1 (Group 6), 0.5% glycerol/4% dextrose): did not show statistically significant tumor growth inhibition
- tumor growth inhibition vs control Group 1 ([2]; Study 6, CRX-601 25 ug iv 1x/week x3 + Rat IgG1 (Group 2), 0.5% glycerol/4% dextrose, 12 days after first dose): did not show statistically significant tumor growth inhibition
- mice showing full tumor regressions ([2]; Study 7, CRX601 25 ug IV alone (Group 2) or with OX86 IP (Group 4), day 80): 5 out of 10
- increase in survival vs control Group 1 ([2]; Study 7, CRX601 monotherapy IV (Group 2), 80 days after first dose): statistically significant
- increase in survival vs control Group 5 ([2]; Study 7, CRX601 monotherapy intratumoral, DOPC/CHOL liposome formulation (Group 7), 80 days): statistically significant
- tumor growth inhibition vs control Group 5 ([2]; Study 7, CRX-601 25 ug intratumoral, DOPC/CHOL liposomal formulation + Rat IgG1 (Group 7)): statistically significant
- tumor growth inhibition vs control Group 1 ([2]; Study 7, CRX-601 25 ug iv (0.5% Glycerol/4% dextrose) + Rat IgG1 (Group 2), 12 days after initial dose): statistically significant
- mice fully regressed and tumor-free ([2]; Study 7, intratumoral liposomal arms: Group 8 combination, Group 6 OX86, Group 7 CRX601, day 80, groups of 10): 2 mice
- tumor growth after CT26 re-challenge of tumor-free mice (CT-26 tumor cells; Study 6, re-challenge on day 68): persistent anti-tumor memory immunity
- tumor growth after CT26 re-challenge of tumor-free mice (CT-26 tumor cells; Study 7, re-challenge on day 80): persistent anti-tumor memory
- TNF alpha (TNF alpha and IL-12p70; 1 and 8 days post dosing): increase
- IL-12p70 (TNF alpha and IL-12p70; only detectable at 8 days post dosing): increase
- OX40 expression on dendritic cells [3]: quick upregulation of OX40 receptor expression
- OX40 expression on human CD4+ T cells [3]: quick upregulation of OX40 receptor expression
- OX40 expression on monocytes [3]: quick upregulation of OX40 receptor expression
